Measured values: patent US20250339566A1, “INHIBITORS OF FIBROBLAST ACTIVATION PROTEIN” (UNIVERSITEIT ANTWERPEN, priority 2022, published 2025)
Read-outs that look alike come from different tables or passages of the source.

Tests used:
Format in all cases: biochemical
human DPP8 = target: T1, human DPP8 (Homo sapiens, UniProt Q6V1X1); experiment: DPP8 IC50 measurement (Ala-Pro-pNA); conditions: for Selectivity index DPP8: IC50(DPP8)/IC50(FAP); for IC50: read-out: DPP8 IC50
T1 construct: made in house; host or cells: Sf9 insect cells (baculovirus)
Excerpt: (§1) Used Enzymes in these Assays: • A gateway-entry clone for human FAP was purchased from Dharmacon (Accession number DQ891423) and the human secretion signal was replaced with the HoneyBee mellitin secretion signal. For transfection and expression of FAP in Sf9 insect cells the C-terminal BaculoDirect kit from LifeTechnologies was used. The enzyme was purified from the supernatant of the insect cells using immobilized Ni-chelating chromatography (GE healthcare, Diegem, Belgium), followed by anion-exchange chromatography using a 1 mL HiTrap Q and size exclusion chromatography using the Superdex 200 column (GE healthcare, Diegem, Belgium). • Human recombinant PREP was expressed in BL21(DE3) cells and purified using immobilized Co-chelating chromatography (GE healthcare), followed by anion-exchange chromatography on a 1 ml Mono Q column (GE healthcare). • DPP4 was purified from human seminal plasma. • Gateway-entry clones for human DPP8 and DPP9 were purchased from Dharmacon (Accession numbers DQ891733 and DQ892325 respectively). For transfection and expression of DPP8 and DPP9 in Sf9 insect cells the N-terminal BaculoDirect kit from LifeTechnologies was used. The enzymes were purified using immobilized Ni-chelating chromatography (GE healthcare, Diegem, Belgium), followed by anion-exchange chromatography using a 1 mL Mono Q (GE healthcare, Diegem, Belgium). • Recombinant human DPP2 was purchased from R&D.
(§2) Eight concentrations of inhibitors/probe were tested. The final DMSO concentration was kept constant during the experiment to exclude any effects. Inhibitors were pre-incubated with the enzyme for 15 minutes at 37° C., afterwards the substrate was added and the velocities of AMC release were measured kinetically at λex=380 nm, λem=465 nm for at least 10 minutes at 37° C. […] Eight concentrations of inhibitors were tested. The final DMSO concentration in kept constant during the experiment to exclude any effects. Inhibitors were pre-incubated with the enzyme for 15 minutes at 37° C., afterwards the substrate was added and the velocities of AMC release were measured kinetically at λex=380 nm, λem=465 nm for at least 10 minutes at 37° C. […] At least eight different inhibitor concentrations were used. The final DMSO concentration is kept constant during the experiment to exclude any effects. Inhibitors were pre-incubated with the enzyme for 15 minutes at 37° C., afterwards the substrate was added and the velocities of pNA release were measured kinetically at 405 nm for at least 10 minutes at 37° C. Measurements were done on the Infinite 200 (Tecan Group Ltd.) and the Magellan software was used to process the data. • For DPP2: Initial velocity measurements were carried out. Lys-Ala-pNA was used as the substrate at a concentration of 1 mM at pH 5.5 (100 mM NaAc, 10 mM EDTA, 14 μg/mL aprotinin). Inhibitors were tested at one concentration, 5 μM, being the final concentration in the well. Inhibitors were pre-incubated with the enzyme for 15 minutes at 37° C., afterwards the substrate was added and the velocities of pNA release were measured kinetically at 405 nm for at least 10 minutes at 37° C. Measurements were done on the Infinite 200 (Tecan Group Ltd.) and the Magellan software was used to process the data.

human FAP = target: T2, human FAP (Homo sapiens, UniProt Q12884); experiment: FAP IC50 measurement (Z-Gly-Pro-AMC); conditions: Z-Gly-Pro-AMC 50 μM, pH 8, 15 min pre-incubation
T2 construct: the human secretion signal was replaced with the HoneyBee mellitin secretion signal; honeybee melittin secretion signal (replaces the native signal) (N); made in house; host or cells: Sf9 insect cells (baculovirus), purified from supernatant
T2 sequence (Q12884 26-760 limits assumed): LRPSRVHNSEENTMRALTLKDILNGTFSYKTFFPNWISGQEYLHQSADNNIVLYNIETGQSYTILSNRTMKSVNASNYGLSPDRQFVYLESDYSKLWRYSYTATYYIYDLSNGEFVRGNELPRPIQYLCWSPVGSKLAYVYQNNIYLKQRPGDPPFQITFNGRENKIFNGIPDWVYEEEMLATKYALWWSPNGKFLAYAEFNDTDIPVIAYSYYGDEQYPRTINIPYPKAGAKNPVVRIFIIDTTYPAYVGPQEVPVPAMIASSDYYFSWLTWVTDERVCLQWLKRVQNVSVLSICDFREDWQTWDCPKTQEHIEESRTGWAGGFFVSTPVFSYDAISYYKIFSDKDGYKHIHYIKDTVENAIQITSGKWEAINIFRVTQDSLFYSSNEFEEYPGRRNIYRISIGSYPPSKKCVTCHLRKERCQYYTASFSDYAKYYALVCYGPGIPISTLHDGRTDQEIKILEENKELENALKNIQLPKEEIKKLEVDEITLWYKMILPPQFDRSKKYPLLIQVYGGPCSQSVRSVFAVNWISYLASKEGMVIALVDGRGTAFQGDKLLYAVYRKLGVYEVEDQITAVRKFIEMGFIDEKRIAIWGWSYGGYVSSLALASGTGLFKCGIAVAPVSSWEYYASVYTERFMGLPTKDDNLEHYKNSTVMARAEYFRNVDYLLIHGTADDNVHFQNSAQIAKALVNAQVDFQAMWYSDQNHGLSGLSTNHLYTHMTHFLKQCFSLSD
Excerpt: as §1, §2

human DPP9 = target: T3, human DPP9 (Homo sapiens, UniProt Q86TI2); experiment: DPP9 IC50 measurement (Ala-Pro-pNA); conditions: for Selectivity index DPP9: IC50(DPP9)/IC50(FAP); for IC50: Ala-Pro-pNA 150 μM, pH 7.4
T3 construct: made in house; host or cells: Sf9 insect cells (baculovirus)
Excerpt: as §1, §2

DPP4 = target: T4, DPP4 (Homo sapiens, UniProt P27487); experiment: DPP4 IC50 measurement (Ala-Pro-pNA); conditions: for Selectivity index DPP4: IC50(DPP4)/IC50(FAP); for IC50: Ala-Pro-pNA 25 μM, pH 7.4
T4 construct: DPP4 was purified from human seminal plasma; from tissue; host or cells: human seminal plasma
Excerpt: as §1, §2

Human recombinant PREP = target: T5, Human recombinant PREP (Homo sapiens, UniProt P48147); experiment: PREP IC50 measurement (N-succinyl-Gly-Pro-AMC); conditions: for Selectivity index PREP: IC50(PREP)/IC50(FAP); for IC50: N-succinyl-Gly-Pro-AMC 250 μM, pH 7.4
T5 construct: made in house; host or cells: E. coli BL21(DE3)
T5 sequence (P48147 1-710): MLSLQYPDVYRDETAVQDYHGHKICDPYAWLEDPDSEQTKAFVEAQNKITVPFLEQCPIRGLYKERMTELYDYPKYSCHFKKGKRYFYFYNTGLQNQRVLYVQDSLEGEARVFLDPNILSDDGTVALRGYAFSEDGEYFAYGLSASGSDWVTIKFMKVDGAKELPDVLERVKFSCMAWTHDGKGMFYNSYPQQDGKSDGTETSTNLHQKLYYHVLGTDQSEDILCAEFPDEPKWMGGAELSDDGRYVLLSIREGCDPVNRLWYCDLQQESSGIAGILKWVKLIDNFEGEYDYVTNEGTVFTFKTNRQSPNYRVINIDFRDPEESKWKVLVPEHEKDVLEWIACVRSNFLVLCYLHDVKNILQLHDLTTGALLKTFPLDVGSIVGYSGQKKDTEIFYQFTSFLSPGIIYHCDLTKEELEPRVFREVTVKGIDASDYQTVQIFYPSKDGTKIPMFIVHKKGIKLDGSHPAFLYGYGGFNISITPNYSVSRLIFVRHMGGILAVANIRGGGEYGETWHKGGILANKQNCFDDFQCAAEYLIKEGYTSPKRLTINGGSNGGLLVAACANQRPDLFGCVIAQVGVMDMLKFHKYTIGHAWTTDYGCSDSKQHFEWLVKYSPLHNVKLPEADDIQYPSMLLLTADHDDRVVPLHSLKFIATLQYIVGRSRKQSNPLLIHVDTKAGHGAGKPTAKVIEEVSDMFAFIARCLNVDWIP
Excerpt: as §1, §2

T1 sequence (Q6V1X1 whole entry): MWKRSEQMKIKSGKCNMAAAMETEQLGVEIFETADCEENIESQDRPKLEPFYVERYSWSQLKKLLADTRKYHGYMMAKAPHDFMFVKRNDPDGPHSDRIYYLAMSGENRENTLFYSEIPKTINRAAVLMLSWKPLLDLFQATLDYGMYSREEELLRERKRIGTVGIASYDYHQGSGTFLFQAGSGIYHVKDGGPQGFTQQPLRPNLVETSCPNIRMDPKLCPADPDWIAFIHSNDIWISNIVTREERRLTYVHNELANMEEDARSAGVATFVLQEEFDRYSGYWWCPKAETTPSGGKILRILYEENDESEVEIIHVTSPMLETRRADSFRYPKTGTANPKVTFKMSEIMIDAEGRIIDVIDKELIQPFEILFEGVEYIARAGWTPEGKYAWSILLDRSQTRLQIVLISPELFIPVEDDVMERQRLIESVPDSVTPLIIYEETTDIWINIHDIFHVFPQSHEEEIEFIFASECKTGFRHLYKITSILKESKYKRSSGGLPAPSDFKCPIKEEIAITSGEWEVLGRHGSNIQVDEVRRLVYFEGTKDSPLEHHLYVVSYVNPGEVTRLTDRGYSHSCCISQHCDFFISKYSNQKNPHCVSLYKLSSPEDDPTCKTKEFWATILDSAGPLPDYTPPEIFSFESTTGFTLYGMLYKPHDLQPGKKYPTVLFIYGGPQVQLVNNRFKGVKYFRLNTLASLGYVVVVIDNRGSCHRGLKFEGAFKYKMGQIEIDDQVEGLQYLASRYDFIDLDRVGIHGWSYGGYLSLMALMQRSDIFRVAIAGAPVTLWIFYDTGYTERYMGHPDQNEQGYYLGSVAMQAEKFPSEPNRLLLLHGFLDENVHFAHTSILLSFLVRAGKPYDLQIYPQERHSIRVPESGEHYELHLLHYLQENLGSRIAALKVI
T3 sequence (Q86TI2 whole entry): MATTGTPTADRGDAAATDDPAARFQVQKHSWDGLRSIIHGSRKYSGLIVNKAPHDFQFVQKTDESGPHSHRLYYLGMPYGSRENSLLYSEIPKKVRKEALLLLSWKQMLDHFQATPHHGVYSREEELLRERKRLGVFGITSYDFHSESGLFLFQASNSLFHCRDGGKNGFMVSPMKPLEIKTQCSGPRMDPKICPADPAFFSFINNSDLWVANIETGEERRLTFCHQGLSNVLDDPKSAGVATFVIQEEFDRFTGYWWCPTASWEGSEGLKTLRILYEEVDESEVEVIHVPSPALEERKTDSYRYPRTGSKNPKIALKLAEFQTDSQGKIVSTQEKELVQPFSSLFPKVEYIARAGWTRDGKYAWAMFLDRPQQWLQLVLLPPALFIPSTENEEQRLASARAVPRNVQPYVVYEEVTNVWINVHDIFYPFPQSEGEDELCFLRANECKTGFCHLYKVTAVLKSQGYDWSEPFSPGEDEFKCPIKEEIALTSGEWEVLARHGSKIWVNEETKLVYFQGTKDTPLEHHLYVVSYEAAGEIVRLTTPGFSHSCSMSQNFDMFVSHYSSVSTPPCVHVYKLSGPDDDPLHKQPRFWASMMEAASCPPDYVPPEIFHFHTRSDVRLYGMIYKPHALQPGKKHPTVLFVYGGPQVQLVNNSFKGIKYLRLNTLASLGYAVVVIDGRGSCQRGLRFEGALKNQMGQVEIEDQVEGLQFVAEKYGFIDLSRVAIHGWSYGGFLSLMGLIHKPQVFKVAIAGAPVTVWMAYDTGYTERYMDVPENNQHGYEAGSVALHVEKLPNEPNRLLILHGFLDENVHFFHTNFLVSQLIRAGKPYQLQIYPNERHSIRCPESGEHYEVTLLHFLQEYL
T4 sequence (P27487 whole entry): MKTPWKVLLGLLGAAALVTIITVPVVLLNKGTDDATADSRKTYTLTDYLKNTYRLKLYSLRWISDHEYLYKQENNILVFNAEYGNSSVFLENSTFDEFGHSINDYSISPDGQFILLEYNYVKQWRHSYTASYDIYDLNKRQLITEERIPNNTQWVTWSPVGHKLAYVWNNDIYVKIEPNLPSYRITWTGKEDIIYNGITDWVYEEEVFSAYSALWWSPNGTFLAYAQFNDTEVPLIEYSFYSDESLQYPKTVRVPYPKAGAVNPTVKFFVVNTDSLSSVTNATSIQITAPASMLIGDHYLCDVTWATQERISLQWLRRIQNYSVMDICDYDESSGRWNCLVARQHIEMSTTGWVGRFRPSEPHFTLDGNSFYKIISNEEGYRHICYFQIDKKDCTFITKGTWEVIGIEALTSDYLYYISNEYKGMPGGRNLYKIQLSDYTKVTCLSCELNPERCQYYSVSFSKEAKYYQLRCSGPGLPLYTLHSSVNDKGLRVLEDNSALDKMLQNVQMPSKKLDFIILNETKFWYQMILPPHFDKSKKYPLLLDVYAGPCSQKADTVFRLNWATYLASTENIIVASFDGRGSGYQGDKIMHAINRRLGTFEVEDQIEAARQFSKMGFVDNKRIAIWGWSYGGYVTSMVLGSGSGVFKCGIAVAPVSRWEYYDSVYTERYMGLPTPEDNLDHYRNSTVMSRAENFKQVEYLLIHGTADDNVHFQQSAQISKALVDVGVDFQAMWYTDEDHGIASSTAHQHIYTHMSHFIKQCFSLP

Row | SMILES | Selectivity index DPP8 (human DPP8) | IC50 (human FAP) [nM] | Selectivity index DPP9 (human DPP9) | Selectivity index DPP4 (DPP4) | Selectivity index PREP (Human recombinant PREP) | IC50 (Human recombinant PREP) [nM] | IC50 (human DPP8; Ala-Pro-pNA 300 μM, pH 7.4) [nM] | IC50 (human DPP9) [nM] | IC50 (DPP4) [nM] | IC50 (human DPP8; heading: DPP8 IC50) [nM]
1 | C[N+](C)(CF)CCOCCOc1ccc2nccc(C(=O)NCC(=O)N3CC(F)(F)C[C@H]3C#N)c2c1.Cc1ccc(S(=O)(=O)[O-])cc1 [Compound 9, (S)-2-(2-((4-((2-(2-cyano-4,4-difluoropyrrolidin-1-yl)-2-oxoethyl)carbamoyl)quinolin-6-yl)oxy)ethoxy)-N-(fluoromethyl)-N,N-dimethylethan-1-aminium 4-methylbenzenesulfonate] | >20000 | 0.49 ± 0.001 | >20000 | >20000 | >10000 | 5330 ± 710 | – | – | – | –
2 | C[N+](C)(CF)CCOCCOCCOc1ccc2nccc(C(=O)NCC(=O)N3CC(F)(F)C[C@H]3C#N)c2c1 [Compound 10, (S)-2-(2-(2-((4-((2-(2-cyano-4,4-difluoropyrrolidin-1-yl)-2-oxoethyl)carbamoyl)quinolin-6-yl)oxy)ethoxy)ethoxy)-N-(fluoromethyl)-N,N-dimethylethan-1-aminium hexafluorophosphate(V)] | >21000 | 0.46 ± 0.04 | >21000 | >2100 | >2100 | > 1000 | > 10000 | > 10000 | > 1000 | –
3 | C[N+](C)(CCF)CCOCCOc1ccc2nccc(C(=O)NCC(=O)N3CC(F)(F)C[C@H]3C#N)c2c1 [Compound 8, (S)-2-(2-((4-((2-(2-cyano-4,4-difluoropyrrolidin-1-yl)-2-oxoethyl)carbamoyl)quinolin-6-yl)oxy)ethoxy)-N-(2-fluoroethyl)-N,N-dimethylethan-1-aminium 4-methylbenzenesulfonate] | >1300 | 9.42 ± 3.44 | >1300 | >1300 | >1300 | > 10000 | > 10000 | > 10000 | > 10000 | –
4 | C[N+]1(CCCOc2ccc3nccc(C(=O)NCC(=O)N4CC(F)(F)C[C@H]4C#N)c3c2)CCN(C(=O)c2ccc(I)cc2)CC1 [Compound 13, (S)-1-(3-((4-((2-(2-cyano-4,4-difluoropyrrolidin-1-yl)-2-oxoethyl)carbamoyl)quinolin-6-yl)oxy)propyl)-4-(4-iodobenzoyl)-1-methylpiperazin-1-ium hexafluorophosphate(V)] | >2200 | 0.44 ± 0.1 | >2200 | >22000 | >22000 | > 10000 | > 1000 | 670 ± 30 | > 10000 | –
5 | C[N+]1(CCCOc2ccc3nccc(C(=O)NCC(=O)N4CC(F)(F)C[C@H]4C#N)c3c2)CCN(C(=O)c2ccc(B(O)O)cc2)CC1.Cc1ccc(S(=O)(=O)[O-])cc1 [Compound 12, (S)-4-(4-boronobenzoyl)-1-(3-((4-((2-(2-cyano-4,4-difluoropyrrolidin-1-yl)-2-oxoethyl)carbamoyl)quinolin-6-yl)oxy)propyl)-1-methylpiperazin-1-ium 4-methylbenzenesulfonate] | >1700 | 0.57 ± 0.05 | >1700 | >17000 | >17000 | > 10000 | > 1000 | > 1000 | > 1000 | –
6 | C[N+](C)(CF)CCCOc1ccc2nccc(C(=O)NCC(=O)N3CC(F)(F)C[C@H]3C#N)c2c1.Cc1ccc(S(=O)(=O)[O-])cc1 [Compound 4a, (S)-3-((4-((2-(2-cyano-4,4-difluoropyrrolidin-1-yl)-2-oxoethyl)carbamoyl)quinoline-6-yl)oxy)-N-(fluoromethyl)-N,N-dimethylpropan-1-aminium benzenesulfonate] | >31000 | 0.32 ± 0.02 | >31000 | >31000 | >31000 | > 10000 | > 10000 | > 10000 | > 10000 | –
7 | N#C[C@@H]1CC(F)(F)CN1C(=O)CNC(=O)c1ccnc2ccccc12 [UAMC1110, reference compound] | – | – | – | – | – | – | – | – | – | > 10000
